Results on two compounds are retold here after patent publication US20120165206A1, “Method and Assay for Glycosylation Pattern Detection Related to Cell State” (priority 2006, published 2012).

For one experiment, the system named is 3T3L1 cells. Description: Lectin array glycoanalysis (Qproteome Glycoprofiling Kit) of membrane proteins of 3T3L1 cells treated with DMJ. The conditions noted are these: pre-confluent 3T3L1 cells, 800 ug/ml DMJ, 3 days, FIG. 4. Type of experiment: cell-based, mouse. The method, then: (§1) Lectins with differing, well-characterized glycan-binding specificities are spotted on the surface of an array. The array is probed with a biotinylated membrane glycoprotein mixture and washed to reduce background. Bound biotinylated glycoproteins are visualized with Cy®3-labeled streptavidin using a microarray scanner. Following scanning, the resulting images are analyzed using Qiagen GlycoAnalyzer Software.
(§2) Each lectin is printed on the slides at seven concentrations. The analysis provides a lectin fingerprint for each sample: a histogram in which each bar represents the slope of the dose-response curve observed for each lectin. […] All fingerprints in an experiment are preferably normalized to the fingerprint of the reference sample. Microarray technologies generally require normalization between slides to adjust for variations that arise from technology, rather than from biological differences. The normalization in Qproteome Glycoprofiling Kits is preferably based on a robust-regression algorithm (using MM-estimators; please see Example 9 for a description).
Materials and Methods: Pre-confluent 3T3L1 cells were incubated for 3 days in the presence or absence of 800 ug/ml DMJ. Cells were then harvested and analyzed with the Qproteome Glycoprofiling Kit (Qiagen USA; the assay was performed as described in the kit manual according to manufacturer's instructions).

In the next experiment the test system is PC12 cells. Description: Lectin array glycoanalysis (Qproteome Glycoprofiling Kit) of membrane proteins of PC12 cells treated with BFA. The conditions noted are these: 12 ug/ml BFA, 24 h. Type of experiment: cell-based. The method, then:
as §1, §2
Materials and Methods: PC12 cells were treated with 12 ug/ml BFA for 24 h. […] Cells were then harvested and analyzed with the Qproteome Glycoprofiling Kit (Qiagen USA; the assay was performed as described in the kit manual according to manufacturer's instructions).

Take `OC[C@H]1NC[C@@H](O)[C@@H](O)[C@@H]1O` [DMJ, 1-deoxymannojirimycin]: in the experiment on 3T3L1 cells (vs non-treated cells), the “antennarity (lectins that bind N-linked complex antennary structures)” value is “strongly reduced” and the “signals from all oligomannose binding lectins (high mannose glycans)” value was “significantly increased”. Also, the “sugars found on antennae termini such as beta galactose and sialic acid” value in the experiment on 3T3L1 cells is listed as “decrease”.
Turning to `C[C@H]1CCC/C=C/[C@@H]2C[C@H](O)C[C@H]2[C@H](O)/C=C/C(=O)O1` [BFA, Brefeldin A], the “cell morphology / attachment” value in the experiment on PC12 cells was “morphological changes were observed and cells were detached”. In addition, in the experiment with PC12 cells (FIG. 3), the “antennarity of the membrane glycoproteins (lectin that binds N-linked complex antennary structures)” value was “significant decrease”; the “signals from lectins recognizing terminal sugars such as alpha-galactose, beta-galactose, sialic acid and fucose” value is “Decreases”.
